Measured values published in PMC8574157 (Journal of chemical information and modeling, 2021).
Read-outs that look alike come from different tables or passages of the source.

Tests used:
YFV 17D strain = assay: microbe, parasite or virus in culture; format: cell-based, yellow fever virus
in vitro = conditions: human
protease for YFV = protease for YFV (Yellow fever virus, UniProt P03314); format: biochemical
polymerase for YFV = polymerase for YFV (Yellow fever virus, UniProt P03314); format: biochemical
Sequence of polymerase for YFV (P03314 2507-3411 limits assumed): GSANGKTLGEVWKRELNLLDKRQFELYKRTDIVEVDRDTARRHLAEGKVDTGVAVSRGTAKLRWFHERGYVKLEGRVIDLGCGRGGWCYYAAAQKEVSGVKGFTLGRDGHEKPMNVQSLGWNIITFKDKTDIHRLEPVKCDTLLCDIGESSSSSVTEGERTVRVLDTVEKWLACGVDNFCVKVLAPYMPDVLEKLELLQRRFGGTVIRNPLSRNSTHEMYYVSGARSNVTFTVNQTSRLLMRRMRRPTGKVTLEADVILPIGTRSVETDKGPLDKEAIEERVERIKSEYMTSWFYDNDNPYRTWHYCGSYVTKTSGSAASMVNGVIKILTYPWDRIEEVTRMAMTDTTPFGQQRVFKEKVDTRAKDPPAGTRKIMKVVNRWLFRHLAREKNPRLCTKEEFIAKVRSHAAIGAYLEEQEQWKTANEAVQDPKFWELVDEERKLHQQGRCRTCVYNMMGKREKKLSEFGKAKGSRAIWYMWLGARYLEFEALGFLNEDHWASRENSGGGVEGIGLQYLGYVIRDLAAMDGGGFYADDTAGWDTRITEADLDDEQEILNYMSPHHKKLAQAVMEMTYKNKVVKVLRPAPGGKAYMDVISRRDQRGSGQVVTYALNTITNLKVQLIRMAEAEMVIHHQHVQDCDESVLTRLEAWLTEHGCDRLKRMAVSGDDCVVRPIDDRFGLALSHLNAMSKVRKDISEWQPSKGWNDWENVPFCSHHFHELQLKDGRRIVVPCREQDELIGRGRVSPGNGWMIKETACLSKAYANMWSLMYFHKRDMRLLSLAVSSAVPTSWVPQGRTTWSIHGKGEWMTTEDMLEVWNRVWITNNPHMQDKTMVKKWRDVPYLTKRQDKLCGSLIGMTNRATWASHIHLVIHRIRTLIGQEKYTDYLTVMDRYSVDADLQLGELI

[1] = Yellow fever virus, Huh-7, read-out: EC50 (Neutral Red)
[2] = Yellow fever virus, Huh-7, read-out: EC50 (Visual)

Sequence of protease for YFV (P03314 1485-2107 limits assumed): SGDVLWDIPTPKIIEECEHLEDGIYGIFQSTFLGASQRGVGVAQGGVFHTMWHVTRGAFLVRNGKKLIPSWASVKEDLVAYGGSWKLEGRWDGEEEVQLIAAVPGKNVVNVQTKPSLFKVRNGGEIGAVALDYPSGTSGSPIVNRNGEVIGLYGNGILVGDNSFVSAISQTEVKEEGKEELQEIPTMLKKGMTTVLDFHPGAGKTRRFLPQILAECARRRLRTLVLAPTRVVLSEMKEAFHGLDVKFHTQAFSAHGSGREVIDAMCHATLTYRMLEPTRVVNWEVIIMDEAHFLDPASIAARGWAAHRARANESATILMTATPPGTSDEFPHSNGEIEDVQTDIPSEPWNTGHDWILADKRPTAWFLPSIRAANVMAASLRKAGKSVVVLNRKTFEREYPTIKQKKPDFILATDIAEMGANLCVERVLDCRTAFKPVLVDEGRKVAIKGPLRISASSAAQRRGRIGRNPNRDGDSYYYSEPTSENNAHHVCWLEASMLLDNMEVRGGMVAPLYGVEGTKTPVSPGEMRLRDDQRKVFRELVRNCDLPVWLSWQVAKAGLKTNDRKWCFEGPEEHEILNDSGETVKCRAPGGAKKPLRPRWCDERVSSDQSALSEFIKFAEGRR
Sequence of protease for YFV (P03314 1355-1484 partner limits assumed): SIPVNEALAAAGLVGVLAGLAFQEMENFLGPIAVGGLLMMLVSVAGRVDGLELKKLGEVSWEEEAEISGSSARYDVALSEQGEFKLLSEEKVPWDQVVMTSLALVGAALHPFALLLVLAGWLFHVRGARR

Row | Compound | EC50 (YFV 17D strain; [1]) | EC50 (YFV 17D strain; [2]) | CC50 (in vitro; CC50 (Neutral Red)) | CC50 (in vitro; CC50 (Visual)) | EC50 (YFV 17D strain; read-out: EC50 (Neutral Red)) | EC50 (YFV 17D strain; read-out: EC50 (Visual)) | activity against the protease for YFV (protease for YFV) | activity against the polymerase for YFV (polymerase for YFV)
1 | CCn1nc(C(=O)O)c(=O)c2cc3c(cc21)OCO3 [Cinoxacin] | > 100 µM | > 100 µM | > 100 µM | > 100 µM | – | – | – | –
2 | O=C1[C@H](CC[C@H](O)c2ccc(F)cc2)[C@@H](c2ccc(O)cc2)N1c1ccc(F)cc1 [Ezetimibe] | > 29 µM | > 32 µM | 29 µM | 32 µM | – | – | – | –
3 | Fc1ccc([C@@H]2CCNC[C@H]2COc2ccc3c(c2)OCO3)cc1 [Paroxetine] | > 3.1 µM | > 3.2 µM | 3.1 µM | 3.2 µM | – | – | – | –
4 | Oc1ccc(-c2nc(-c3ccncc3)c(-c3ccc(F)cc3)[nH]2)cc1 [SB202190] | > 100 µM | > 100 µM | > 100 µM | > 100 µM | – | – | – | –
5 | N-{4-cyano-5-[(4-fluorophenyl)amino]-1H-pyrazol-3-yl}naphthalene-2-sulfonamide [Compound 11626003] | – | – | – | – | 3.3 µM | 3.2 µM | not active | not active
